Measurements: paper PMC3564796, “Reversal of MRP7 (ABCC10)-Mediated Multidrug Resistance by Tariquidar” (PLoS ONE, 2013)

Key:
[1] = target: T1, MRP7 (ABCC10) (Homo sapiens, UniProt Q5T3U5); assay: [3H]-paclitaxel accumulation in HEK/MRP7 cells; format: cell-based; conditions: 4 h treatment; 0.01 µM [3H]-paclitaxel (methods; Figure 5 legend prints 0.1 µM); 37°C; inhibitor of efflux
T1 construct: MRP7 expression vector stably transfected into HEK293 cells (HEK/MRP7); empty-vector HEK/pcDNA as control
T1 sequence (Q5T3U5 1-1492): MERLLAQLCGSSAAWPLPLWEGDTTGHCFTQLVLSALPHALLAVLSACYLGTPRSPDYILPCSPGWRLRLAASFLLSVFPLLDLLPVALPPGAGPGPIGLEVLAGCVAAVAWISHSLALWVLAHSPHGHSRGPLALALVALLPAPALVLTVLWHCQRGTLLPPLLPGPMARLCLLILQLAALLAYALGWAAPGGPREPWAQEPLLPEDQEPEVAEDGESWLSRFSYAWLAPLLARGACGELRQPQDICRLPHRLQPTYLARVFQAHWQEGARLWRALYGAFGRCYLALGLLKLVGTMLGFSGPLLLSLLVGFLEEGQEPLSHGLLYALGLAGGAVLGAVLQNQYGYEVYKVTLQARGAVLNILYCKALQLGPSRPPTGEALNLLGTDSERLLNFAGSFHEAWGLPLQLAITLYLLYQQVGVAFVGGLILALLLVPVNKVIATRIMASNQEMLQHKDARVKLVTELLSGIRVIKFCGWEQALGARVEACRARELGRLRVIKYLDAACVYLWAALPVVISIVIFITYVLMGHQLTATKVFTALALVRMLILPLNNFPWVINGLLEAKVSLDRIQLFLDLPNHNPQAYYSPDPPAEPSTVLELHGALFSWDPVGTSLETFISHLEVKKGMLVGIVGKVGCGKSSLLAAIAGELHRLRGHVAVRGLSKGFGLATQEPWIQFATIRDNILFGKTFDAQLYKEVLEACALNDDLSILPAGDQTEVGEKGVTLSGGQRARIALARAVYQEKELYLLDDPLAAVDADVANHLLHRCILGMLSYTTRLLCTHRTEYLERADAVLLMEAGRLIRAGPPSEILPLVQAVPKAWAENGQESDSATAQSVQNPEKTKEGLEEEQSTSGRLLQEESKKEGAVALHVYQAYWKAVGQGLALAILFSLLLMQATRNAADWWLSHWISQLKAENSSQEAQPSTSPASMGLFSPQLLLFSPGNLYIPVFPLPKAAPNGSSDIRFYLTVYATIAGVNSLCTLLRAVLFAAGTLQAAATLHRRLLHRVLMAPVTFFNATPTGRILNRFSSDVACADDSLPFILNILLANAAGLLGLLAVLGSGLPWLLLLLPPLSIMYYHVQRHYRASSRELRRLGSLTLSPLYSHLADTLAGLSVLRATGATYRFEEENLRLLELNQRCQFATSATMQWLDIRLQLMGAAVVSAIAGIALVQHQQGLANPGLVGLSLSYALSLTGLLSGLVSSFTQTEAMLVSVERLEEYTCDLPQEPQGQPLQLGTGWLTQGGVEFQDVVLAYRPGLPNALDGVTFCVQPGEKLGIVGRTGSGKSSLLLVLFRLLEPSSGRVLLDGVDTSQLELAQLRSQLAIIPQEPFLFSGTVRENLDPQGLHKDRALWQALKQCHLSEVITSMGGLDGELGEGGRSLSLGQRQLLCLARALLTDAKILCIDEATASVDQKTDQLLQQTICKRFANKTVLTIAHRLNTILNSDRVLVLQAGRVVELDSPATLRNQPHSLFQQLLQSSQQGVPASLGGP

[2] = target: T1, MRP7 (ABCC10); assay: cellular efflux time course, HEK/MRP7 versus HEK/pcDNA; format: cell-based; conditions: labelled compound (3H); 0.01 µM; 37°C; 0-120 min

Structure (SMILES) | fold [3H]-paclitaxel accumulation at 0.3 μM [1] [fold] | cellular efflux time course, HEK/MRP7 versus HEK/pcDNA [2]
COc1cc2c(cc1OC)CN(CCc1ccc(NC(=O)c3cc(OC)c(OC)cc3NC(=O)c3cnc4ccccc4c3)cc1)CC2 [Tariquidar] | 1.8 | –
CC(=O)O[C@H]1C(=O)[C@@]2(C)[C@H]([C@H](OC(=O)c3ccccc3)[C@]3(O)C[C@H](OC(=O)[C@H](O)[C@@H](NC(=O)c4ccccc4)c4ccccc4)C(C)=C1C3(C)C)[C@]1(OC(C)=O)CO[C@@H]1C[C@@H]2O [[^3H]-paclitaxel] | – | HEK/MRP7 cells, but not the parental HEK/pcDNA cells, rapidly effluxed [^3H]-paclitaxel
